Patent publication US20120034193A1, “TREATMENT OF NEUROTROPHIC FACTOR MEDIATED DISORDERS” (priority 2009, published 2012)

Key:
Rat cortical neurones [1] = experiment: Neuritogenesis in cortical neurones; format: cell-based; conditions: 24 h; for Neurones displaying neurites (%): control 39.35 ± 2.06
Experimental: Rat cortical neurones were cultured by modification of a previously described method (Singer, et al., Neuroscience Letters, 1996, 212, pp. 13-16). Cells were cultured with sarsasapogenin, smilagenin, vehicle (DMSO 0.25%), GDNF, BDNF or NGF for 24 h. For each group, 15 pictures showing neurones displaying neurites were selected at random in each field, and for each neurone the longest neurite was measured. The neurite number was measured by counting the number of neurones displaying neurites, the number of neurones not displaying neurites and the number of total neurones in each field. Six fields per well were examined.
The results are shown in Table 15 below, expressed as the number of neurones with neurites per field as a percentage of the total number of neurones per field.

C57b1/6 RJ mice = experiment: Sciatic nerve crush model; format: in vivo, Mouse; conditions: for Degenerated fibres (% of control): nerve crush alone 109.10 ± 2.65; for Recovery of nerve function as measured by CMAP parameters (amplitude, latency, duration): sarsasapogenin 3, smilagenin 0.3 and 3 mg/kg/day, oral gavage in oil, 6 weeks
From the text: The sciatic nerve crush model is a well characterised reversible model for motor neurone disease and post-traumatic nerve injuries (McMahon and Priestley, Current Opinion in Neurobiology, 1995, 5, pp. 616-624). The nerve damage is produced by mechanical pressure using haemostatic forceps, applied twice, 5 mm proximal to the trifurcation of the right sciatic nerve of these mice. […] The loss of nerve function recovers progressively over a 4-5 week period after the mechanical insult.
4-Methylcatechol (10 μg/kg/day, i.p.) was used as a positive control (Kaechi et al., Journal of Phamacology and Experimental Therapeutics, 1995, 272, pp. 1300-1304).
C57b1/6 RJ mice were anaesthetised with ketamine chlorhydrate (60 mg/kg, i.p.). The sciatic nerve was surgically exposed at mid thigh level and crushed at 5 mm proximal to the trifurcation of the sciatic nerve. The nerve was crushed twice for 30 s with a haemostatic forceps with a 90-degree rotation between each crush. […] The loss of nerve function recovered progressively over a 4-5 week period after mechanical insult. Electromyographic recordings were assessed as described above.

[2] = system: Old Sprague Dawley (SD) rats; experiment: Y-maze learning and memory in aged rats; format: in vivo, Rat; conditions: 18 mg/kg/day oral; for Learning ability (correct response/total time): 2 months, aged 2.39, young 5.97; for Memory ability (correct response/total time): 3 months, aged 2.16, young 5.27; for Anxiety (Y-maze): up to 3 months
Experimental: Old Sprague Dawley (SD) rats (20 month old) were orally administered sarsasapogenin or smilagenin (18 mg/kg/day) for 3 months. Young SD rats (4 month old) were used as healthy positive control and old SD rats (20 month old) were used as neurodegenerative control. A Y-maze was used to assess learning and memory, and was considered also a model of anxiety in light of the nature of the test that caused distress to the animal. On the floor of each arm of the Y-maze was an array of copper rods (2 mm×140 mm) to which an adjustable voltage electric current was applied when needed. Each arm was 450 mm long with a 15 W lamp at the end. Following 2 months of treatment each rat was trained for 7 consecutive days, once on each day. During each training session, a rat was put into one arm of the Y-maze and after 2 min an electrical current applied to the copper rods in the anti-clockwise arm and the lamp of the clockwise arm was illuminated, indicating the non-electrified area. If the rat went into the illuminated arm a correct response was recorded, otherwise a wrong response was recorded. This stimulation-response test was repeated 20 times each day, with a pause of 5 s between each test. The number of correct responses and the total time period for the 20 tests were recorded. A quotient of the number of correct responses divided by the total response time was calculated and used as an index for learning ability, with the higher the quotient the greater the learning ability. One month after the learning test (3 months of treatment) the Y-maze test was carried out again and the quotient obtained was used as an index for memory ability. At the end of the treatment the rats were killed and the brains removed for quantification of BDNF using an ELISA (data of BDNF presented in Example 3 above).

Rat cortical neurones [3] = experiment: Reversal of glutamate-induced damage in cortical neurones; format: cell-based; conditions: 30 nM for 24 h after glutamate 100 μM 10 min
Experimental: The rat cortical neurones were prepared as detailed above. On day 13, cultures were exposed to glutamate (100 μM) for 10 min at 37° C. in 5% CO2/95% air atmosphere in defined medium. Following the incubation period, the cultures were washed and maintained in fresh medium, containing sarsasapogenin, smilagenin or vehicle. Cells were cultured for a further 24 h after glutamate exposure and were then assessed for neuronal damage as detailed above.

[4] = system: Rat spinal motor neurones; experiment: Reversal of glutamate-induced damage in spinal motor neurones; format: cell-based
Experimental: The rat spinal motor neurones were prepared as detailed above. On day 10, the medium was removed and the cultures exposed to glutamate (4 μM) for 10 min at 37° C. in 5% CO2/95% air atmosphere in defined medium. After the glutamate exposure, cultures were washed with DMEM at 37° C. then placed in fresh culture medium containing sarsasapogenin, smilagenin, vehicle or BDNF. After 48 h, the extent of motor neurone damage was determined as detailed above. This Example develops the work reported in Example 8 of PCT patent application No. WO-A-03/082893.

Rat cortical neurones [5] = experiment: Neuronal survival and neurite outgrowth of cortical neurones cultured in the absence of serum; format: cell-based; conditions: 30 nM, one day, no serum
Experimental: Rat cortical neurones were cultured following the method described above.
The test compounds were added for 24 h.
Rat cortical neurones were exposed to sarsasapogenin, smilagenin (30 nM) or vehicle (DMSO, 0.25%) in the absence FBS or FCS for one day. Cortical neurones were stained using a monoclonal antibody anti β-tubulin diluted and an anti mouse Immunoglobulin G diluted. These antibodies stained neurone cell bodies (quantifying the neuroprotective effect) and neurites (quantifying the neurotrophic effect). An epifluorecence microscope (magnification ×20) with a camera took 2 pictures per well (10 pictures per condition). Analyses of the number of cells labelled with anti β-tubulin antibodies and of the total number of cells was performed using LUCIA 6.0 software.

BDNF = experiment: Brain BDNF in aged rats (ELISA); format: in vivo, Sprague Dawley (SD) rats; conditions: 18 mg/kg/day oral, 3 months, aged 1.21, young 1.65
Experimental: Old Sprague Dawley (SD) rats (20 month old) were orally administered sarsasapogenin or smilagenin (18 mg/kg/day) for 3 months. […] Young SD rats (4 month old) were used as healthy positive control. At the end of the treatment the brains removed for quantification of BDNF using an ELISA.

[6] = 0.03 nM for 48 h after glutamate 4 μM 10 min
[7] = 3 nM for 48 h after glutamate 4 μM 10 min
[8] = 300 nM for 48 h after glutamate 4 μM 10 min

Row | Structure (SMILES) | Neurite length (% of control) (Rat cortical neurones [1]; 3 nM) | Neurones displaying neurites (%) (Rat cortical neurones [1]; 3 nM) | Neurite length (% of control) (Rat cortical neurones [1]; 30 nM) | Neurones displaying neurites (%) (Rat cortical neurones [1]; 30 nM) | Degenerated fibres (% of control) (C57b1/6 RJ mice; 0.3 mg/kg/day oral) | Degenerated fibres (% of control) (C57b1/6 RJ mice; 3 mg/kg/day oral) | Recovery of nerve function as measured by CMAP parameters (amplitude, latency, duration) (C57b1/6 RJ mice) | Learning ability (correct response/total time) [2] | Memory ability (correct response/total time) [2] | Anxiety (Y-maze) [2] | Neuronal survival (% of control) (Rat cortical neurones [3]) | Neuronal survival (% of control) [4, 6] | Neuronal survival (% of control) [4, 7] | Neuronal survival (% of control) [4, 8] | Neurite outgrowth (% of control) (Rat cortical neurones [5]) | Neuronal survival (% of control) (Rat cortical neurones [5]) | BDNF (ng/g tissue) (BDNF)
1 | C[C@@H]1CC[C@@]2(OC1)O[C@H]1C[C@H]3[C@@H]4CC[C@@H]5C[C@@H](O)CC[C@]5(C)[C@H]4CC[C@]3(C)[C@H]1[C@@H]2C [Smilagenin, smilagenin] | 159.03 ± 4.91 % of control | 53.84 ± 2.93 % | 176.71 ± 6.34 % of control | 53.46 ± 2.13 % | 16.70 ± 4.23 % of control | −8.10 ± 6.03 % of control | significantly improved the recovery of nerve function | 4.81 ± 0.32 correct response/total time | 4.58 ± 0.26 correct response/total time | reduce the anxiety | 111.06 ± 3.40 % of control | 90.98 ± 2.46 % of control | 101.53 ± 3.18 % of control | 106.61 ± 4.24 % of control | 173.89 ± 9.23 % of control | 155.36 ± 4.75 % of control | 1.34 ± 0.07 ng/g tissue
2 | C[C@H]1CC[C@@]2(OC1)O[C@H]1C[C@H]3[C@@H]4CC[C@@H]5C[C@@H](O)CC[C@]5(C)[C@H]4CC[C@]3(C)[C@H]1[C@@H]2C [Sarsasapogenin, sarsasapogenin] | 168.29 ± 6.12 % of control | 52.40 ± 2.63 % | 156.74 ± 4.06 % of control | 57.32 ± 2.54 % |  | 33.50 ± 12.60 % of control | significantly improved the recovery of nerve function | 5.02 ± 0.50 correct response/total time | 4.66 ± 0.34 correct response/total time | reduce the anxiety | 103.43 ± 5.10 % of control | 101.09 ± 4.12 % of control | 108.10 ± 3.56 % of control | 120.43 ± 7.46 % of control | 152.85 ± 10.68 % of control | 149.55 ± 6.22 % of control | 1.41 ± 0.07 ng/g tissue
